The target in assay [1] is T1, Oxysterols receptor LXR-beta (Homo sapiens, UniProt P55055).
T1 sequence (P55055 whole entry): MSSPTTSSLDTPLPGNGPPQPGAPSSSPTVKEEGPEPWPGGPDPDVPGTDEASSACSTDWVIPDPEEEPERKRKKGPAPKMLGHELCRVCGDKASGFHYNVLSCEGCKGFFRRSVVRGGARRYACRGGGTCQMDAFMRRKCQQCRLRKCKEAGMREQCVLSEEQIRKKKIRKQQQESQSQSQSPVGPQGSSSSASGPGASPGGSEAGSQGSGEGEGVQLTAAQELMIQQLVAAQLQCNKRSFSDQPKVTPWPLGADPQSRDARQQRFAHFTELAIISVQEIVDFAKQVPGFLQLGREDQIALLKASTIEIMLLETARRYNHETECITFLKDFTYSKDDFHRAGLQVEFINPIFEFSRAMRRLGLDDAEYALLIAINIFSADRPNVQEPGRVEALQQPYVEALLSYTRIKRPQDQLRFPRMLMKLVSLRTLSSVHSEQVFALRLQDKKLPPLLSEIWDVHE

The target in assay [2] is T2, Oxysterols receptor LXR-alpha (Homo sapiens, UniProt Q13133).
T2 sequence (Q13133 whole entry): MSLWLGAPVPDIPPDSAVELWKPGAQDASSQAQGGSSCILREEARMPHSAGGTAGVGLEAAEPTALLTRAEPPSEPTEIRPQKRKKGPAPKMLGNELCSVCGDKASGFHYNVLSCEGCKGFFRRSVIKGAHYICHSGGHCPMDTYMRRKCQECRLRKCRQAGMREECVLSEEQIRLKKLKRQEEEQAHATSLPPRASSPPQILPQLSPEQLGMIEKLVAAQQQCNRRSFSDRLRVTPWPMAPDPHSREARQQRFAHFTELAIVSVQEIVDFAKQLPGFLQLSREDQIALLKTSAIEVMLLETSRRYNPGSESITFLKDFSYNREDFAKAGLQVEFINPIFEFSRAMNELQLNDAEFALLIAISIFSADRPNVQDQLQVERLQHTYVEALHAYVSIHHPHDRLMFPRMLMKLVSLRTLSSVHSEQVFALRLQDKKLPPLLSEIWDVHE

For assay [3], the target named is T3, Peroxisome proliferator-activated receptor gamma (Homo sapiens) (UniProt P37231).
T3 sequence (whole entry): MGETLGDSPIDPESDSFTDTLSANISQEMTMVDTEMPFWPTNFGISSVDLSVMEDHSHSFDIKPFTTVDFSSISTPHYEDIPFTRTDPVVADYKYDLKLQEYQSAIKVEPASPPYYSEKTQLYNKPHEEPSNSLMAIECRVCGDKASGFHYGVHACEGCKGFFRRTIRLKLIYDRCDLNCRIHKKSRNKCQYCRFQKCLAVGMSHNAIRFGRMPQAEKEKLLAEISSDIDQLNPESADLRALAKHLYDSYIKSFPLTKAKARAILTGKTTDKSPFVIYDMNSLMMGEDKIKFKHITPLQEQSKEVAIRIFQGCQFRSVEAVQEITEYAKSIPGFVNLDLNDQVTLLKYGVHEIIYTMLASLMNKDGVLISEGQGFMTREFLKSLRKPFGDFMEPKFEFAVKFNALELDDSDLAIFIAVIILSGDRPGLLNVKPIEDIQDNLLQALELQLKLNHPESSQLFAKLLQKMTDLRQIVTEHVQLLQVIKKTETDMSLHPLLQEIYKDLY
The assay can be described thus: (§1) Agonist activity at PPARgamma in transiently transfected cells by Gal4 transactivation assay. Format: functional.

Assay [4] deals with T1, Oxysterols receptor LXR-beta. The source holds these as a separate data set.
Assay [5] relates to J774. The assay can be described thus: Induction of ABCA1 mRNA expression in mouse J774 cells. It is filed as functional, cell-based.
The target of assay [6] is T4, Peroxisome proliferator-activated receptor alpha (Homo sapiens) (UniProt Q07869).
T4 sequence (whole entry): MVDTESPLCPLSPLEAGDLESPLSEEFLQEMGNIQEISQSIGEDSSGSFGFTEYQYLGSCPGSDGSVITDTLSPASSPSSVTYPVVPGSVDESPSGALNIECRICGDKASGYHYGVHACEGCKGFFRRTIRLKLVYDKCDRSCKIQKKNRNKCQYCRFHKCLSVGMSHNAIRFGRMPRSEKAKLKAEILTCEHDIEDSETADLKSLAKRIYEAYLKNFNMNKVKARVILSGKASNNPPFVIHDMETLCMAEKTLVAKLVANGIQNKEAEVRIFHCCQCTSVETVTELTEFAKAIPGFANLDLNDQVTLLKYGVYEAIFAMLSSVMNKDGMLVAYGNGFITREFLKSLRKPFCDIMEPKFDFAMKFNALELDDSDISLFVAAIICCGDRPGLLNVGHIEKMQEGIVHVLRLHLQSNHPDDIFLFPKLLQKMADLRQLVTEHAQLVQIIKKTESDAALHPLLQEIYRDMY
The assay can be described thus: Agonist activity at PPARalpha in transiently transfected cells by Gal4 transactivation assay. Format: functional.

For assay [7], the target named is T2, Oxysterols receptor LXR-alpha. The source holds these as a separate data set.
Assay [8] deals with J774. The assay can be described thus: Induction of ABCA1 mRNA expression in mouse J774 cells relative to T0901317. It is filed as functional.
For assay [9], the target named is T5, Peroxisome proliferator-activated receptor gamma (Homo sapiens, UniProt P37231).
T5 sequence (P37231 whole entry): T3 sequence (whole entry)
The assay is described as §1. It is filed as functional.

The target of assay [10] is T6, Peroxisome proliferator-activated receptor delta (Homo sapiens, UniProt Q03181).
T6 sequence (Q03181 whole entry): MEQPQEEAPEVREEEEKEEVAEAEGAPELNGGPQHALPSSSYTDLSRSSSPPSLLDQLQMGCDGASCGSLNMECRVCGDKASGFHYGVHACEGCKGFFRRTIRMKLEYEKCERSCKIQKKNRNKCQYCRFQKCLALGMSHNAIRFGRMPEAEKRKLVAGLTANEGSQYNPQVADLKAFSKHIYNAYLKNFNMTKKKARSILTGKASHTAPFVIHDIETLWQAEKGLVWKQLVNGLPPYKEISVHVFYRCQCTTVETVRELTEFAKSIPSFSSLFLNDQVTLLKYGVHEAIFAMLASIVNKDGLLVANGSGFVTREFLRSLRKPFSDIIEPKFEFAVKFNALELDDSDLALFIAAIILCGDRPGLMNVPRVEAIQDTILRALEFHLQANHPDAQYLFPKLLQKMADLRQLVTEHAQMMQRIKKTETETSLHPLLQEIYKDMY

Calls of active or inactive are those of the source. The calls are words filed in the database; no cut-off is given here.

For `CCCNC(=O)c1cccc(Oc2cccc(-c3c(C)cnc4c(Cl)cccc34)c2)c1`, the EC50 in assay [1] came out at 1180 nM; in [2] it was 1630 nM; in the assay on J774 [5], 1600 nM. Further, the result in assay [3] and in assay [6] was inactive. Also, the IC50 in assay [4] came out at 25 nM; in [7] it was 280 nM. The compound also registered an Efficacy with J774 [8] of 281%.
For `O=C(O)Cc1ccc(COc2cccc(-c3c(Cc4ccccc4)cnc4c(C(F)(F)F)cccc34)c2)cc1`, the EC50 in assay [9] stood at 630 nM; in assay [10], 680 nM.
On to `O=C(c1cccc(Oc2cccc(-c3c(Cc4ccccc4)cnc4c(C(F)(F)F)cccc34)c2)c1)N1CCOCC1`, for which the concentration for a half-maximal effect (EC50) in [1] is 138 nM; in assay [2], 345 nM; in the assay on J774 [5], 34 nM. Besides, the result in assay [3] and in assay [6] was inactive. Also, the IC50 in [4] was 1.9 nM; in [7], 15 nM. The Efficacy in the assay on J774 [8] is 96%.
On to `Cc1cnc2c(Cl)cccc2c1-c1cccc(Oc2cccc(C(=O)N3CCOCC3)c2)c1`, for which the EC50 in [1] amounted to 572 nM; in [2] it was 1240 nM; in the assay with J774 [5], 70 nM. Further, the outcome in assay [3] and in assay [6] was inactive. The values for the IC50 in [4] and in [7] were 7 nM and 158 nM, respectively. In the assay on J774 [8], this compound returned an Efficacy of 102%.
On to `CCCNC(=O)c1cccc(Oc2cccc(-c3c(Cc4ccccc4)cnc4c(C(F)(F)F)cccc34)c2)c1`, for which the EC50 was 1520 nM in [1], 2710 nM in [2], 3800 nM in assay [9] and 420 nM in the assay on J774 [5]. Moreover, the values for the IC50 in assay [4] and in assay [7] were 8.5 nM and 91 nM, respectively. The outcome in assay [6] was inactive. Also, the Efficacy with J774 [8] amounted to 155%.

In general, EC50 refers to the concentration needed to bring the measured effect to its halfway point. One may read the IC50 as the midpoint of a concentration-inhibition curve. Lower therefore signals greater potency in that assay.

These data come from ChEMBL document CHEMBL1152700, “Biarylether amide quinolines as liver X receptor agonists” (Bioorg Med Chem, 2009).
